Patent US11034725B2, “Compositions and methods for treating cardiovascular disease” (Genentech, Inc., priority 2016, dated 2021)
pIC50, pKd: −log10 of the molar value. Read-outs that look alike come from different tables or passages of the source. Numbered stars: 1 amine (or outer) side, 2 acyl side, 3 side chain; on linkers, the order of the positions; unused ones are H or OH. Bridge positions count the residues as written; N and C are the ends. Square brackets hold non-standard residues; d marks the D form. Peptide text beside a SMILES is read from it. * marks the point of attachment. 5FAM = O=C1OC2(c3ccc(O)cc3Oc3cc(O)ccc32)c2ccc(C(=O)*)cc21; NH(CH2)9CO = O=C(CCCCCCCCCN[*:1])[*:2]; hArg = N=C(N)NCCCC[C@H](N)C(=O)O; Pentanoyl = CCCCC(=O)*

Tests used:
[1] = molecular target: T1, PCSK9Δhelix (Homo sapiens, UniProt Q8NBP7); assay: Surface plasmon resonance biosensor-based affinity analysis (Example 4); type: binding; conditions: for pKd: Table 7, Target PCSK9Δhelix, SPR at 20° C., read-out: Kd
T1 construct: Human PCSK9 construct M1-Q692 with an engineered TEV site (residue deletion Y166, R167); made in house; host or cells: CHO
Protocol: All assays were conducted at an analysis temperature of 20° C. Samples were held at 10° C. in the sample rack to prevent denaturation of PCSK9 proteins. A biacore T100 from GE HealthCare and a SensiQ Pioneer FE were employed. All reagents were obtained from Sigma-Aldrich unless otherwise stated. The full set of peptides was analyzed using three closely related biosensor protocols that were expected to report equivalent affinity/kinetic parameters. The need for multiple protocols was related to the aggregation potential of some peptides. The buffer composition was largely conserved other than the addition of solubilizers such as dimethylsulfoxide (DMSO), 10 kDa polyvinylpyrrolidone (PVP) and 10 kDa carboxymethylated dextran (CM dextran).
A Series S NTA sensor chip was docked in the Biacore T100 biosensor system. The system was primed into running buffer (i.e. 50 mM HEPES, 0.15 M NaCl, 0.005% T20, pH 7.5). Hexahistidine-tagged proteins (“hexahistidine” disclosed as SEQ ID NO: 297) (i.e. PCSK9 or PCSK9Δhelix) were affinity captured onto separate sensing channels where at least one sensing surface remained uncoated in order to be applied as a referencing sensing surface. Compound samples were prepared in running buffer and injected. All affinity bound complexes were then removed before reloading each protein in order to test the next sample. Each sample cycle therefore consisted of five sequential injections that were repeated for each test sample as follows.
Injected sample using high quality injection mode. […] For these compounds the entire sample cycle consisting of five serial injections was repeated for each dilution. This sample cycle was a repeated sequence that is executed for each sample in the sample table.
This method was identical to method 1 except an alternative injection mode designated as single cycle kinetics (named by the manufacturer) was employed allowing a full dilution series to be completed during each sample cycle by replacing a single compound dilution injection with five sequential injections of increasing concentration. The resulting sensorgram (i.e. response curve) contained five binding-dissociation phases each associated with each injected compound dilution. The activation, capture and regeneration injections remained unchanged. […] Also CM dextran (Sigma-Aldrich product number 86524) was added to all buffers in the assay to a final concentration of 2 mg/mL in order to further lower non-specific binding to the surface. […] All recorded binding curves were automatically double referenced and fitted with a 1:1 model using BIAevaluation analysis software from GE HealthCare.
This instrument is analogous to Biacore AB biosensors in terms of surface chemistry, flow injection analysis and methodologies that can be employed except that it also provides a method to titrate compounds over the sensing surfaces.

[2] = molecular target: PCSK9 (Homo sapiens, UniProt Q8NBP7); assay: PCSK9/EGF(A) TR-FRET binding assay; conditions: for pIC50: TR-FRET, read-out: PCSK9/EGF(A) IC50
Protocol: The former was based on a TF-FRET assay to measure the association of the EGF(A) domain of the LDLR to PCSK9 (“PCSK9/EGF(A) binding assay”) whilst the latter was based on a TR-FRET assay to measure binding of Ab20 to PCSK9Δhelix (“PCSK9Δhelix/Ab20 binding assay”).
The ability of compounds to inhibit binding to PCSK9 was evaluated with a panel of time-resolved fluorescence resonance energy transfer (TR-FRET) binding assays. […] The PCSK9Δhelix/Ab20 binding assay evaluated the ability of compounds to compete with Ab20 for binding to the N-terminal groove region in a His-tagged, PCSK9Δhelix construct. […] Signal generation in the PCSK9 binding assays was dependent upon the binding interaction to bring into close proximity the His-tag on the PCSK9 and the Fc-tag on the ligand. Anti-His-APC was bound to the His-tag, and anti-Fc-europium was bound to the Fc-tag. When these two antibodies were in close proximity and were irradiated with light at 340 nm, the europium was excited and emitted energy at 615 nm. This energy was taken up by the APC and was emitted as light at 665 nm. Compounds that competed with the ligand reduced the energy transfer and thus the emission at 665 nm. In the His-EGFA-Fc molecule in the counterscreen, the two tags were always in close proximity, thus any reduction in emission at 665 nm was due to interference with the detection system.
Compounds were solubilized and dilutions were prepared in DMSO. […] The plate was centrifuged to mix the well contents and allowed to incubate for 30 min. […] The TR-FRET signal was read on a ViewLux reader (PerkinElmer) with excitation at 340 nm and emission at 615 and 665 nm with a 50-μs time delay between excitation and measurement of emission. The TR-FRET ratio was calculated as the fluorescence emission at 665 nm divided by the fluorescence emission at 615 nm. The normalized TR-FRET ratios were plotted as a function of the compound concentrations, and the IC50 values were determined using a 4-parameter logistic regression.
In black 1536-well assay plates (MaKO, Aurora® Microplates, Whitefish, Mont.), 40 nL of peptide in DMSO were preincubated with 2 μL His-tagged PCSK9 plus anti-His-allophycocyanin in assay buffer (50 mM Tris-HCl, pH 7.5, 150 mM NaCl, 2 mM CaCl2, 0.01% Tween®-20, 0.1% bovine gamma globulins, and protease inhibitor cocktail) for 30 min. Then 2 μL of Fc-tagged ligand and anti-Fc-europium in assay buffer were added and allowed to incubate for 2 h.

[3] = molecular target: T1, PCSK9Δhelix; assay: PCSK9Δhelix/Ab20 TR-FRET binding assay; conditions: for pIC50: TR-FRET, read-out: PCSK9Δhelix/Ab20 IC50
[4] = system: His-EGF(A)-Fc; assay: His-EGF(A)-Fc TR-FRET counterscreen
[5] = TR-FRET counterscreen, Table 8E, additional compounds
[6] = Table 8D, disulfide-cyclized extension peptides
[7] = TR-FRET counterscreen, Table 8D, * = some inhibition at highest concentrations, not sufficient to fit an IC50

T1 sequence (Q8NBP7 with tags, fused parts or gaps limits assumed): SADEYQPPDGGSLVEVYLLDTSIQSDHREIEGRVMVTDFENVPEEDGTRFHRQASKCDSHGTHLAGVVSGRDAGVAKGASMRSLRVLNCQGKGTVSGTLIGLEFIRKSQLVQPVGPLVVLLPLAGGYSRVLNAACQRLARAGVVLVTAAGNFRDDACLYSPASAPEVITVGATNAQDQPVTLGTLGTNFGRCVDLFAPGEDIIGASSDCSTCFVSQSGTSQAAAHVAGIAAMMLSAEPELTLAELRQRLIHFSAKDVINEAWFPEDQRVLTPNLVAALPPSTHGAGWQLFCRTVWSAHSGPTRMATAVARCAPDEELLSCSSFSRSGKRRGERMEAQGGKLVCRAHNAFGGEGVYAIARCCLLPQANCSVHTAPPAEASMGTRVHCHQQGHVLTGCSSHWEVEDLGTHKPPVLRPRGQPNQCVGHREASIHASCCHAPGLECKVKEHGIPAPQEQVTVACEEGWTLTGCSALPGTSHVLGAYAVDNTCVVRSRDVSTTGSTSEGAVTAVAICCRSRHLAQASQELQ
T1 sequence (Q8NBP7 31-152 partner limits assumed): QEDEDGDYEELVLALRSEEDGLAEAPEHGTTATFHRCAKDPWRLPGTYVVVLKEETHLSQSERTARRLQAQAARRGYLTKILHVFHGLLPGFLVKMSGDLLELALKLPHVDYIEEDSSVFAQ
Sequence of PCSK9 (Q8NBP7 153-692): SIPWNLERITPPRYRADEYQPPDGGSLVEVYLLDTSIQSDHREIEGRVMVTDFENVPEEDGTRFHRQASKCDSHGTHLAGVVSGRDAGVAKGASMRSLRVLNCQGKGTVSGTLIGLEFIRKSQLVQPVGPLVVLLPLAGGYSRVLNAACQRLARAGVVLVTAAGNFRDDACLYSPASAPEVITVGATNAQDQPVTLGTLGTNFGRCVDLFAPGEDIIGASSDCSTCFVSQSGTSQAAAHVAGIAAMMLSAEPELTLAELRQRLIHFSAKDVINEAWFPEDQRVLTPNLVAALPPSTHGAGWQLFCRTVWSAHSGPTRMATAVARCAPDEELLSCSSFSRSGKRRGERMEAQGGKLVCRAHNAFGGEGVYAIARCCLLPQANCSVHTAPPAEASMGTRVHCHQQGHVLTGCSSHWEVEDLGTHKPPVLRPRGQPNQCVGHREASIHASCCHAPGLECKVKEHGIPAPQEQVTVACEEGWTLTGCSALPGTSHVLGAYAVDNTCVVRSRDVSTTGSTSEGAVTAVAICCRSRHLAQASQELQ
Sequence of PCSK9 (Q8NBP7 31-152 partner limits assumed): as the sequence (Q8NBP7 31-152 partner limits assumed) above

| Compound | pKd [1] | pIC50 ([3]; Example 7) | pIC50 ([4]; counterscreen, Example 7) | pIC50 [2, 6] | pIC50 [3, 6] | pIC50 [4, 7] | other results |
| --- | --- | --- | --- | --- | --- | --- | --- |
| Ac-DLMPWNLVRIGLAR-NH2 [Compound 55] | 5.55 | 5.01 | < 4.30 |  |  |  | pIC50 ([2]; Example 7): < 4.30 |
| H-SGDLMPWNLVRIGLLR-OH [Compound 28] | 6.07 |  |  |  |  |  |  |
| CC[C@H](C)[C@@H]1NC(=O)[C@H](CCCNC(=N)N)NC(=O)[C@H](CCC(N)=O)NC(=O)[C@H](CC(C)C)NC(=O)[C@H](CC(N)=O)NC(=O)[C@H](Cc2c[nH]c3ccccc23)NC(=O)[C@@H]2CCCN2C(=O)[C@H]([C@@H](C)CC)NC(=O)[C@H](Cc2ccccc2)NC(=O)[C@@H](NC(=O)CNC(=O)[C@H](CO)NC(=O)CNC(=O)[C@H](CO)NC(=O)c2ccc3c(c2)C(=O)OC32c3ccc(O)cc3Oc3cc(O)ccc32)CSSC[C@@H](C(N)=O)NC(=O)[C@H](CC(C)C)NC(=O)[C@H](CC(C)C)NC(=O)CNC1=O [Compound 33] (5FAM-SGSGCFIPWNLQRIGLLC-NH2; disulfide 5-18) | 5.00 |  |  |  |  |  |  |
| CC[C@H](C)[C@@H]1NC(=O)[C@H](CCCNC(=N)N)NC(=O)[C@H](CCCCN)NC(=O)[C@H](CC(C)C)NC(=O)[C@H](CC(N)=O)NC(=O)[C@H](Cc2c[nH]c3ccccc23)NC(=O)[C@@H](NC(=O)CNC(=O)[C@H](CO)NC(=O)CNC(=O)[C@@H](NC(=O)[C@H](Cc2c[nH]c3ccccc23)NC(=O)[C@H](CC(=O)O)NC(=O)[C@H](CC(C)C)NC(=O)[C@H](Cc2ccc(O)cc2)NC(=O)[C@H](CCC(=O)O)NC(=O)[C@H](CCC(=O)O)NC(=O)[C@H](Cc2c[nH]c3ccccc23)NC(=O)[C@H](CO)NC(=O)[C@@H](NC(=O)[C@H](Cc2ccccc2)NC(=O)[C@@H](NC(=O)[C@@H](NC(C)=O)[C@@H](C)O)C(C)C)[C@@H](C)O)C(C)C)CSSC[C@@H](C(N)=O)NC(=O)CNC(=O)[C@H](CCC(N)=O)NC(=O)[C@H](CO)NC(=O)CNC1=O [Compound 2] (Ac-TVFTSWEEYLDWVGSGCWNLKRIGSQGC-NH2; disulfide 17-28) | 8.73 | 8.40 | < 4.30 |  |  |  |  |
| CC[C@H](C)[C@@H]1NC(=O)[C@H](CCCNC(=N)N)NC(=O)[C@H](CCCCN)NC(=O)[C@H](CC(C)C)NC(=O)[C@H](CC(N)=O)NC(=O)[C@H](Cc2c[nH]c3ccccc23)NC(=O)[C@H](CC(C)C)NC(=O)[C@@H](NC(=O)[C@H](Cc2ccccc2)NC(C)=O)CSSC[C@@H](C(=O)N[C@@H](Cc2c[nH]c3ccccc23)C(=O)N[C@@H](Cc2ccccc2)C(N)=O)NC(=O)[C@H](CCC(N)=O)NC(=O)[C@H](C)NC(=O)CNC1=O [Compound 96] (Ac-FCLWNLKRIGAQCWF-NH2; disulfide 2-13 (inferred)) | 5.60 |  |  |  |  |  |  |
| Ac-ALMPWNLVRIGLLR-NH2 [Compound 45] | 5.09 | 5.69 | < 4.30 |  |  |  | pIC50 ([2]; Example 7): < 4.30 |
| CC[C@H](C)[C@@H]1NC(=O)[C@H](CCCNC(=N)N)NC(=O)[C@H](CCCCN)NC(=O)[C@H](CC(C)C)NC(=O)[C@H](CC(N)=O)NC(=O)[C@H](Cc2c[nH]c3ccccc23)NC(=O)[C@@H](NC(=O)CCCCCNC(=O)[C@@H](NC(=O)[C@H](Cc2c[nH]c3ccccc23)NC(=O)[C@H](CC(=O)O)NC(=O)[C@H](CC(C)C)NC(=O)[C@H](Cc2ccc(O)cc2)NC(=O)[C@H](CCC(=O)O)NC(=O)[C@H](CCC(=O)O)NC(=O)[C@H](Cc2c[nH]c3ccccc23)NC(=O)[C@H](CO)NC(=O)[C@@H](NC(=O)[C@H](Cc2ccccc2)NC(=O)[C@@H](NC(=O)[C@@H](NC(C)=O)[C@@H](C)O)C(C)C)[C@@H](C)O)C(C)C)CSSC[C@@H](C(N)=O)NC(=O)CNC(=O)[C@H](CCC(N)=O)NC(=O)[C@H](CO)NC(=O)CNC1=O [Compound 17] | 9.91 | 9.00 | < 4.30 |  |  |  | Kd range for PCSK9Δhelix binding [1]: sub-nanomolar range; inhibition in the PCSK9/EGF(A) binding assay [2]: maintained potency; pIC50 ([2]; Example 7): 8.05; inhibition in the PCSK9Δhelix/Ab20 binding assay [3]: maintained potency |
| CCCCC(=O)N[C@@H](Cc1c[nH]c2ccccc12)C(=O)N[C@@H](CC(N)=O)C(=O)N[C@@H](CC(C)C)C(=O)N[C@@H](CCCCN)C(=O)N[C@@H](CCCNC(=N)N)C(=O)N[C@H](C(=O)NCC(=O)N[C@@H](CC(C)C)C(=O)N[C@@H](CC(C)C)C(=O)N[C@@H](CCCNC(=N)N)C(N)=O)[C@@H](C)CC [Compound 159] (Pentanoyl-WNLKRIGLLR-NH2) |  |  |  |  |  |  | pIC50 ([2]; Table 8E, additional compounds): ≤ 4.30; pIC50 ([3]; Table 8E, additional compounds): 5.18; pIC50 [4, 5]: ≤ 4.30 |
| CC[C@H](C)[C@@H]1NC(=O)[C@H](CCCNC(=N)N)NC(=O)[C@H](CCC(N)=O)NC(=O)[C@H](CC(C)C)NC(=O)[C@H](CC(N)=O)NC(=O)[C@H](Cc2c[nH]c3ccccc23)NC(=O)[C@@H]2CCCN2C(=O)[C@H]([C@@H](C)CC)NC(=O)[C@H](Cc2ccccc2)NC(=O)[C@@H](NC(C)=O)CSSC[C@@H](C(N)=O)NC(=O)[C@H](CC(C)C)NC(=O)[C@H](CC(C)C)NC(=O)CNC1=O [Compound 31] (Ac-CFIPWNLQRIGLLC-NH2; disulfide 1-14) | 5.52 |  |  | < 4.30 | 5.62 | < 4.30 |  |
| CCCCC(=O)N[C@@H](Cc1c[nH]c2ccccc12)C(=O)N[C@@H](CC(N)=O)C(=O)N[C@@H](CC(C)C)C(=O)N[C@H](C(=O)N[C@@H](CCCNC(=N)N)C(=O)N[C@H](C(=O)NCC(=O)N[C@@H](CC(C)C)C(=O)NCC(=O)N[C@@H](CCCNC(=N)N)C(N)=O)[C@@H](C)CC)C(C)C [Compound 179] (Pentanoyl-WNLVRIGLGR-NH2) |  |  |  |  |  |  | pIC50 ([2]; Table 8E, additional compounds): ≤ 4.30; pIC50 ([3]; Table 8E, additional compounds): 4.96; pIC50 [4, 5]: ≤ 4.30 |
| CCCCC(=O)N[C@@H](Cc1c[nH]c2ccccc12)C(=O)N[C@@H](CC(N)=O)C(=O)N[C@@H](CC(C)C)C(=O)N[C@H](C(=O)N[C@@H](CCCCNC(=N)N)C(=O)N[C@H](C(=O)NCC(=O)N[C@@H](CC(C)C)C(=O)N[C@@H](CC(C)C)C(=O)N[C@@H](CCCNC(=N)N)C(=O)O)[C@@H](C)CC)C(C)C [Compound 195, n-BuC(O)-WNLV(homoR)IGLLR] (Pentanoyl-WNLV[hArg]IGLLR-OH) |  |  |  |  |  |  | pIC50 ([2]; Table 8E, additional compounds): 4.66; pIC50 ([3]; Table 8E, additional compounds): 5.77; pIC50 [4, 5]: 4.35 |
| CC[C@H](C)[C@@H]1NC(=O)[C@H](CCCNC(=N)N)NC(=O)[C@H](CCC(N)=O)NC(=O)[C@H](CC(C)C)NC(=O)[C@H](CC(N)=O)NC(=O)[C@H](Cc2c[nH]c3ccccc23)NC(=O)[C@@H]2CCCN2C(=O)[C@@H](CC(C)C)NC(=O)[C@H](CCCNC(=N)N)NC(=O)[C@@H](NC(C)=O)CSSC[C@@H](C(N)=O)NC(=O)[C@@H]2CCCN2C(=O)[C@H](CC(C)C)NC(=O)CNC1=O [Compound 108] (Ac-CR[dL]PWNLQRIGLPC-NH2; disulfide 1-14) |  |  |  | < 4.30 | 4.55 | < 4.30 |  |
| CC[C@H](C)[C@@H]1NC(=O)[C@H](CCCNC(=N)N)NC(=O)[C@H](CCCCN)NC(=O)[C@H](CC(C)C)NC(=O)[C@H](CC(N)=O)NC(=O)[C@H](Cc2c[nH]c3ccccc23)NC(=O)[C@@H](NC(C)=O)CSSC[C@@H](C(=O)N[C@@H](Cc2c[nH]c3ccccc23)C(N)=O)NC(=O)CNC(=O)[C@H](CCC(N)=O)NC(=O)[C@H](CO)NC(=O)CNC1=O [Compound 39] (Ac-CWNLKRIGSQGCW-NH2; disulfide 1-12) |  |  |  | < 4.30 | 4.43 | < 4.30 |  |
| CC(=O)N[C@H]1CSSC[C@@H](C(N)=O)NC(=O)CCCCCCCCCNC(=O)[C@H](CCCNC(=N)N)NC(=O)[C@H](CCC(N)=O)NC(=O)[C@H](CC(C)C)NC(=O)[C@H](CC(N)=O)NC(=O)[C@H](Cc2c[nH]c3ccccc23)NC(=O)[C@@H]2CCCN2C(=O)[C@H](CC(C)C)NC(=O)[C@H](CCCNC(=N)N)NC1=O [Compound 84] (Ac-CRLPWNLQR[NH(CH2)9CO]C-NH2; disulfide 1-11) |  |  |  | < 4.30 | < 4.30 | < 4.30 | inhibition in the PCSK9Δhelix/Ab20 binding assay [3]: removes inhibition |
| CC[C@H](C)[C@@H]1NC(=O)[C@H](CCCNC(=N)N)NC(=O)[C@H](CCC(N)=O)NC(=O)[C@H](CC(C)C)NC(=O)[C@H](CC(N)=O)NC(=O)[C@H](Cc2c[nH]c3ccccc23)NC(=O)[C@@H]2CCCN2C(=O)[C@H](CC(C)C)NC(=O)[C@H](CCCNC(=N)N)NC(=O)[C@@H](NC(C)=O)CSSC[C@@H](C(N)=O)NC(=O)[C@@H]2CCCN2C(=O)[C@H](C)NC(=O)CNC1=O [Compound 69] (Ac-CRLPWNLQRIGAPC-NH2; disulfide 1-14) |  |  |  | < 4.30 | 5.18 | < 4.30 |  |
| CC[C@H](C)[C@@H]1NC(=O)[C@H](CCCNC(=N)N)NC(=O)[C@H](CCCCN)NC(=O)[C@H](CC(C)C)NC(=O)[C@H](CC(N)=O)NC(=O)[C@H](Cc2c[nH]c3ccccc23)NC(=O)[C@@H](NC(C)=O)CSSC[C@@H](C(N)=O)NC(=O)CNC(=O)[C@H](CCC(N)=O)NC(=O)[C@H](CO)NC(=O)CNC1=O [Compound 21] (Ac-CWNLKRIGSQGC-NH2; disulfide 1-12) |  |  |  | < 4.30 | < 4.30 | < 4.30 |  |
| Ac-DLMAWNLVRIGLLR-NH2 [Compound 42] |  | 4.55 | < 4.30 |  |  |  | pIC50 ([2]; Example 7): < 4.30 |
| Ac-WNLVRIGL-NH2 [Compound 120] |  | ≤ 4.31 | < 4.30 |  |  |  | pIC50 ([2]; Example 7): < 4.30 |
